PMC12028158, “Synthesis and In Vitro Evaluation of the Anticancer Effect of Novel Phosphonium Vindoline Derivatives” (International Journal of Molecular Sciences, 2025)
Read-outs that look alike come from different tables or passages of the source.

Experiments:
Format in all cases: cell-based
[1] = system: HOP-92; assay: NCI60 one-dose screen; details: Homo sapiens, HOP-92, read-out: Growth percent
[2] = system: SN12C; assay: NCI60 one-dose screen; details: Homo sapiens, read-out: Growth percent
[3] = system: SK-MEL-2; assay: NCI60 one-dose screen; details: Homo sapiens, SK-MEL-2, read-out: Growth percent
[4] = system: U251; assay: NCI60 one-dose screen; details: Homo sapiens, U-251, read-out: Growth percent
[5] = system: NCI/ADR-RES; assay: NCI60 five-dose screen; details: Homo sapiens
[6] = system: ACHN; assay: NCI60 one-dose screen; details: Homo sapiens, read-out: Growth percent
[7] = system: SF-268; assay: NCI60 one-dose screen; details: Homo sapiens, SF-268, read-out: Growth percent
[8] = system: OVCAR-4; assay: NCI60 five-dose screen; details: Homo sapiens, OVCAR-4
[9] = system: TK-10; assay: NCI60 five-dose screen; details: Homo sapiens, TK-10
[10] = system: NCI-H226; assay: NCI60 one-dose screen; details: Homo sapiens, NCI-H226, read-out: Growth percent
[11] = system: MDA-MB-435; assay: NCI60 five-dose screen; details: Homo sapiens, MDA-MB-435
[12] = system: A498; assay: NCI60 five-dose screen; details: Homo sapiens, A498
[13] = system: K-562; assay: NCI60 one-dose screen; details: Homo sapiens, K562, read-out: Growth percent
[14] = system: EKVX; assay: NCI60 five-dose screen; details: Homo sapiens
[15] = system: MOLT-4; assay: NCI60 one-dose screen; details: Homo sapiens, MOLT-4, read-out: Growth percent
[16] = system: HT29; assay: NCI60 five-dose screen; details: Homo sapiens, HT-29
[17] = system: OVCAR-3; assay: NCI60 five-dose screen; details: Homo sapiens, OVCAR-3
[18] = system: SF-295; assay: NCI60 five-dose screen; details: Homo sapiens, SF-295
[19] = system: HT29; assay: NCI60 one-dose screen; details: Homo sapiens, HT-29, read-out: Growth percent
[20] = system: SK-OV-3; assay: NCI60 one-dose screen; details: Homo sapiens, SK-OV-3, read-out: Growth percent
[21] = system: SR; assay: NCI60 one-dose screen; details: Homo sapiens, read-out: Growth percent
[22] = system: SK-OV-3; assay: NCI60 five-dose screen; details: Homo sapiens, SK-OV-3
[23] = system: 786-0; assay: NCI60 one-dose screen; details: Homo sapiens, 786-0, read-out: Growth percent
[24] = system: PC-3; assay: NCI60 five-dose screen; details: Homo sapiens, PC-3
[25] = system: EKVX; assay: NCI60 one-dose screen; details: Homo sapiens, read-out: Growth percent
[26] = system: NCI-H460; assay: NCI60 five-dose screen; details: Homo sapiens, NCI-H460
[27] = system: A498; assay: NCI60 one-dose screen; details: Homo sapiens, A498, read-out: Growth percent
[28] = system: COLO 205; assay: NCI60 five-dose screen; details: Homo sapiens, COLO 205
[29] = system: A549/ATCC; assay: NCI60 five-dose screen; details: Homo sapiens, A549
[30] = system: BT-549; assay: NCI60 five-dose screen; details: Homo sapiens, BT-549
[31] = system: HS 578T; assay: NCI60 one-dose screen; details: Homo sapiens, Hs-578T, read-out: Growth percent
[32] = system: K-562; assay: NCI60 five-dose screen; details: Homo sapiens, K562
[33] = system: UACC-62; assay: NCI60 five-dose screen; details: Homo sapiens, UACC-62
[34] = system: HOP-62; assay: NCI60 five-dose screen; details: Homo sapiens, HOP-62
[35] = system: RPMI-8226; assay: NCI60 one-dose screen; details: Homo sapiens, RPMI-8226, read-out: Growth percent
[36] = system: U251; assay: NCI60 five-dose screen; details: Homo sapiens, U-251
[37] = system: HOP-92; assay: NCI60 five-dose screen; details: Homo sapiens, HOP-92
[38] = system: Renal Cancer panel; assay: NCI60 five-dose screen, panel mean; details: Homo sapiens
[39] = system: PC-3; assay: NCI60 one-dose screen; details: Homo sapiens, PC-3, read-out: Growth percent
[40] = system: DU-145; assay: NCI60 one-dose screen; details: Homo sapiens, DU-145, read-out: Growth percent
[41] = system: UACC-62; assay: NCI60 one-dose screen; details: Homo sapiens, UACC-62, read-out: Growth percent
[42] = system: MALME-3M; assay: NCI60 one-dose screen; details: Homo sapiens, Malme-3M, read-out: Growth percent
[43] = system: KM12; assay: NCI60 one-dose screen; details: Homo sapiens, KM12, read-out: Growth percent
[44] = system: OVCAR-8; assay: NCI60 one-dose screen; details: Homo sapiens, OVCAR-8, read-out: Growth percent
[45] = system: SK-MEL-28; assay: NCI60 one-dose screen; details: Homo sapiens, SK-MEL-28, read-out: Growth percent
[46] = system: HL-60(TB); assay: NCI60 five-dose screen; details: Homo sapiens, HL-60
[47] = system: SF-539; assay: NCI60 one-dose screen; details: Homo sapiens, SF-539, read-out: Growth percent

For `CC[C@]12C=CCN3CC[C@@]4(c5ccc(OC)cc5N(C)[C@H]4[C@@](O)(C(=O)OC)[C@@H]1OC(=O)CCC[P+](c1ccccc1)(c1ccccc1)c1ccccc1OC)[C@@H]32` [9f], the activity at 10 µM [1] was -58.4%, the activity at 10 µM [2] was -80.6% and the activity at 10 µM [3] was -98%. For the same compound, the activity at 10 µM [4] was -96.9%, the GI50 [5] was 26.1 µM and the activity at 10 µM [6] was 0.6%. The activity at 10 µM [7] was -76.1%, the GI50 [8] was 0.54 µM and the GI50 [9] was 1.94 µM. For the same compound, the activity at 10 µM [10] was -38.6%, the GI50 [11] was 0.299 µM and the GI50 [12] was 2.65 µM. It also gave an activity at 10 µM [13] of -43.4%, a GI50 [14] of 1.22 µM and an activity at 10 µM [15] of 21.2%. The GI50 [16] was 0.356 µM, the GI50 [17] was 0.297 µM and the GI50 [18] was 1.83 µM. For the same compound, the activity at 10 µM [19] was -57.8%, the activity at 10 µM [20] was -33.4% and the activity at 10 µM [21] was -7.49%. For the same compound, the GI50 [22] was 0.411 µM, the activity at 10 µM [23] was -74.1% and the GI50 [24] was 0.268 µM. For the same compound, the activity at 10 µM [25] was -8.21%, the GI50 [26] was 0.774 µM and the activity at 10 µM [27] was -10.4%. It also gave a GI50 [28] of 0.179 µM, a GI50 [29] of 0.945 µM and a GI50 [30] of 0.262 µM. For the same compound, the activity at 10 µM [31] was -47.4%, the GI50 [32] was 0.125 µM and the GI50 [33] was 0.286 µM. It also gave a GI50 [34] of 2.16 µM, an activity at 10 µM [35] of -38% and a GI50 [36] of 0.248 µM. The GI50 [37] was 0.172 µM, the GI50 ([38]; read-out: Mean GI50) was 3.08 µM and the activity at 10 µM [39] was 4.74%. The activity at 10 µM [40] was 1.94%, the activity at 10 µM [41] was -73.2% and the activity at 10 µM [42] was -96.7%. The activity at 10 µM [43] was -93.4%, the activity at 10 µM [44] was 6.9% and the activity at 10 µM [45] was -63.3%. For the same compound, the GI50 [46] was 0.17 µM and the activity at 10 µM [47] was -93.8%.

`CC[C@]12C=CCN3CC[C@@]4(c5ccc(OC)cc5N(C)[C@H]4[C@@](O)(C(=O)OC)[C@@H]1OC(=O)CCCC[P+](c1ccc(C)cc1)(c1ccc(C)cc1)c1ccc(C)cc1)[C@@H]32` [10a] showed an activity at 10 µM [1] of -77.9%, an activity at 10 µM [2] of -88.5% and an activity at 10 µM [3] of -87.2%. For the same compound, the activity at 10 µM [4] was -93.6%, the GI50 [5] was 12 µM and the activity at 10 µM [6] was -99.3%. For the same compound, the activity at 10 µM [7] was -61.1%, the GI50 [8] was 1.09 µM and the GI50 [9] was 1.49 µM. It also gave an activity at 10 µM [10] of -78.6%, a GI50 [11] of 0.678 µM and a GI50 [12] of 2.17 µM. For the same compound, the activity at 10 µM [13] was 0.8%, the GI50 [14] was 1.05 µM and the activity at 10 µM [15] was -25%. The GI50 [16] was 0.358 µM, the GI50 [17] was 0.604 µM and the GI50 [18] was 1.62 µM. The activity at 10 µM [19] was -81.8%, the activity at 10 µM [20] was -82.3% and the activity at 10 µM [21] was 25.8%. It also gave a GI50 [22] of 1.04 µM, an activity at 10 µM [23] of -91% and a GI50 [24] of 0.45 µM. It also gave an activity at 10 µM [25] of -93.8%, a GI50 [26] of 0.6 µM and an activity at 10 µM [27] of -90.9%. It also gave a GI50 [28] of 0.2 µM, a GI50 [29] of 0.819 µM and a GI50 [30] of 0.763 µM. It also gave an activity at 10 µM [31] of -69.9%, a GI50 [32] of 0.654 µM and a GI50 [33] of 0.705 µM. It also gave a GI50 [34] of 1.37 µM, an activity at 10 µM [35] of -46% and a GI50 [36] of 0.47 µM. The GI50 [37] was 0.49 µM, the GI50 ([38]; read-out: GI50 Mean) was 2.34 µM and the activity at 10 µM [39] was -73.2%. The activity at 10 µM [40] was -84.5%, the activity at 10 µM [41] was -97.4% and the activity at 10 µM [42] was -96%. The activity at 10 µM [43] was -73.6%, the activity at 10 µM [44] was -86.6% and the activity at 10 µM [45] was -97.8%. It also gave a GI50 [46] of 0.221 µM and an activity at 10 µM [47] of -98.7%.
